Measurements taken from patent publication US9675629B2, “PH-responsive nanoparticle using mussel adhesive protein for drug delivery and method for preparing the same” (POSTECH ACADEMY-INDUSTRY FOUNDATION, priority 2015, dated 2017).

System: HeLa cells
Experiment: Cellular uptake evaluation, cell imaging and flow cytometer analysis
Format: cell-based
Conditions: DOX 2 μg/mL
Description: For cellular uptake evaluation, cell imaging and flow cytometer analysis were performed. For cell imaging, free DOX and DOX-loaded mfp-1 nanoparticles (DOX concentration 2 μg/mL) were treated for 1 and 3 hours into each cell culture medium after initial cell seeding on 24-well culture plate. Before observation, cells were stained with 5 μg/mL of Hoechst 33258 (Sigma) solution for 30 minutes to clearly discriminate cell nucleus from cytosol. Cell nucleus and location of DOX were observed using fluorescence microscopy (Olympus). Cells treated by same condition with imaging procedures were collected for flow cytometry analysis after detachment by 0.25% trypsin-EDTA treatment. Fluorescence intensity of DOX in the collected cells resuspended in 1 mL PBS was examined by fluorescence scanning with 1×10^4 cells under PerCP-Cy5.5 filter (488 nm excitation and 630 nm emission). Calibration was performed using non-treated cells.

COc1cccc2c1C(=O)c1c(O)c3c(c(O)c1C2=O)C[C@@](O)(C(=O)CO)C[C@@H]3O[C@H]1C[C@H](N)[C@H](O)[C@H](C)O1 [free DOX, doxorubicin]
fluorescence intensity of DOX in cells, flow cytometry (1 and 3 hours): higher than DOX-loaded mfp-1 nanoparticles-treated cells
location of DOX in cells, fluorescence microscopy (treated for 1 hour): spread over the whole cell area
